Experimental data from patent US11917959B2, “Multi-ear system to enhance monocot plant yield” (Monsanto Technology LLC, priority 2015, dated 2024).

System: diploid maize plant
Assay: Multibud induction in vitro, embryo axis method (Example 8)
Format: in vivo
Procedure: Seeds of a diploid maize plant were surface sterilized comprising immersion using standard methods of the art and then germinated in vitro in growth media. One of the resulting seedlings was dissected from its seed two days after germination (embryo axis method). The dissected axis was then subjected to a multibud induction treatment comprising transfer to fresh multibud induction media containing cytokinin in the form of 10 mg/L BAP. After seven days in the multibud bud induction media, the treated seedlings were transferred back to a hormone-free regeneration media. […] These multibuds were dissected from the mother plant and transferred to rooting media comprising IBA and IAA. After approximately one week, the multibud-derived plants were transplanted into 10 inch pots and allowed to grow in a greenhouse until it was clear that each autonomously-growing multibud-derived shoot had formed ears and tassels that nicked. Each ear was then pollinated from the tassel growing in the same pot and then all plants were allowed to grow in greenhouse conditions until seed set.

**Q.** Which results are given for `c1ccc(CNc2ncnc3nc[nH]c23)cc1` [BAP, 6-Benzylaminopurine, N-(Phenylmethyl)-7H-pruin-6-amine]?
**A.** seed borne by ears of multibud-derived plants (10 mg/L BAP): dozens of seed each; multibud formation (10 mg/L BAP for seven days, after approximately twenty days): induced multibuds could be seen growing from the nodal regions of the stem
